In BindingDB's records for doi:10.1021/jm050559f (Wyeth Research, 2005):

Assays:
[1] = target: T1, Vascular endothelial growth factor receptor 2 (Homo sapiens, UniProt P35968); experiment: Inhibition of poly(Glu4-Tyr)peptide phosphorylation by recombinant VEGFR2 at 10 uM ATP
[2] = target: T1, Vascular endothelial growth factor receptor 2; experiment: Inhibition of poly(Glu4-Tyr)peptide phosphorylation by recombinant VEGFR2 at 10 uM ATP and in presence of 100 uM glutathione
[3] = target: T1, Vascular endothelial growth factor receptor 2; experiment: Inhibition of poly(Glu4-Tyr)peptide phosphorylation by recombinant VEGFR2 at 10 uM ATP and in presence of 5% mouse plasma

Measured: IC50

T1 sequence (P35968 whole entry): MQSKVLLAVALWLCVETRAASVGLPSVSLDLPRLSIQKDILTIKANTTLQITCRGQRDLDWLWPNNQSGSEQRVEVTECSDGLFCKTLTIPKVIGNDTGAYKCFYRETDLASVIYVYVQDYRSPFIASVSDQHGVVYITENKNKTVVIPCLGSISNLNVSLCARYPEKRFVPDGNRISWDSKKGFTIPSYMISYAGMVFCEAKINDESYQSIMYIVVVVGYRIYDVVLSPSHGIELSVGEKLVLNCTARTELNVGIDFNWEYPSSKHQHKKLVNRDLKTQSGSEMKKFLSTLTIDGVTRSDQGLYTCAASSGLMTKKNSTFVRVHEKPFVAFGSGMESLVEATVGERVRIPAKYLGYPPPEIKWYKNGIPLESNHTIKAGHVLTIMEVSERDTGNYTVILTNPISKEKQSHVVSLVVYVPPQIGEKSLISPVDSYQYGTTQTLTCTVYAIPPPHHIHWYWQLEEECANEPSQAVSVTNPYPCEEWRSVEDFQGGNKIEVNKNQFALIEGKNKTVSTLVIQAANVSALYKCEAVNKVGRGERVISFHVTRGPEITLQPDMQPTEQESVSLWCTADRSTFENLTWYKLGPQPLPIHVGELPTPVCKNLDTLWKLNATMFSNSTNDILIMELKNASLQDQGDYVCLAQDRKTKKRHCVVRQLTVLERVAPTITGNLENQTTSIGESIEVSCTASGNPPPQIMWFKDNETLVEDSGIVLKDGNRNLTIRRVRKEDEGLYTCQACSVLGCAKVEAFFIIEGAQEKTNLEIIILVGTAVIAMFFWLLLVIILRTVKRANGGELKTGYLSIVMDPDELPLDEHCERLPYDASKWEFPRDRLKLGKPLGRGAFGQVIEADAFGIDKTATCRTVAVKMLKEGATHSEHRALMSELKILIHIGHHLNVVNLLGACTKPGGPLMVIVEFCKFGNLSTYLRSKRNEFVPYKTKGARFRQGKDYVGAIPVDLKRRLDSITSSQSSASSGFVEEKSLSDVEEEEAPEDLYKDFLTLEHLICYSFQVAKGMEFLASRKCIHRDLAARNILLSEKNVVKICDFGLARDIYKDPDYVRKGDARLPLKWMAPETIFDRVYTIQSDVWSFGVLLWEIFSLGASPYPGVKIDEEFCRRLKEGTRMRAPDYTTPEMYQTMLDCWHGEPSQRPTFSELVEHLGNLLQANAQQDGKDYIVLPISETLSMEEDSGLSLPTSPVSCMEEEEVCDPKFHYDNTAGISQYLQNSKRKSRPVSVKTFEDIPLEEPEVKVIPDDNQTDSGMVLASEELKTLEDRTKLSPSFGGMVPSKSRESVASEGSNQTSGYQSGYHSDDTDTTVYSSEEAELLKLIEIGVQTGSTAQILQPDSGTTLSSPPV

COCCOc1cc2ncnc(N=C3C(=O)C(OC)=CC(=O)C3Sc3ccccn3)c2cc1OC (stereo not drawn) [5-methoxy-3-{[6-methoxy-7-(2-methoxyethoxy)quinazolin-4-yl]amino}-2-(pyridin-2-ylthio)benzo-1,4-quinone]
> 1 µM: [1] | [2] | [3]
